Assay type in all cases: in vivo
For assay [1], the system named is vetch aphid (Megoura viciae). Kind of assay: Test B.1: control of vetch aphid on broad bean leaf disks in microtiter plates (contact or systemic). To be noted: 5 days. The method, then:
For evaluating control of vetch aphid (Megoura viciae) through contact or systemic means the test unit consisted of microtiter plates containing broad bean leaf disks. The compounds or mixtures were formulated using a solution containing 75 wt % water and 25 wt % DMSO. Different concentrations of formulated compounds or mixtures were sprayed onto the leaf disks at 2.5 μl, using a custom built micro atomizer, at two replications.
(§1) For experimental mixtures in these tests identical volumes of both mixing partners at the desired concentrations respectively, were mixed together.
After application, the leaf disks were air-dried and 5-8 adult aphids placed on the leaf disks inside the microtiter plate wells. The aphids were then allowed to suck on the treated leaf disks and incubated at 23±1° C., 50±5% RH (relative humidity) for 5 days. Aphid mortality and fecundity was then visually assessed.

The subject of assay [2] is Mediterranean fruitfly (Ceratitis capitata). Kind of assay: Test B.4: control of Mediterranean fruitfly, insect diet with eggs in microtiter plates. To be noted: 5 days. The method, then: For evaluating control of Mediterranean fruitfly (Ceratitis capitata) the test unit consisted of well-microtiter plates containing an insect diet and 50-80 C. capitata eggs. The compounds or mixtures were formulated using a solution containing 75 wt % water and 25 wt % DMSO. Different concentrations of formulated compounds or mixtures were sprayed onto the insect diet at 5 μl, using a custom built micro atomizer, at two replications.
as §1
After application, microtiter plates were incubated at 28±1° C., 80±5% RH for 5 days. Egg and larval mortality was then visually assessed.

In assay [3] the test system is boll weevil (Anthonomus grandis). Kind of assay: Test B.3: control of boll weevil, insect diet with eggs in microtiter plates. To be noted: 5 days. The method, then: For evaluating control of boll weevil (Anthonomus grandis) the test unit consisted of well-microtiter plates containing an insect diet and 20-30 A. grandis eggs.
The compounds or mixtures were formulated using a solution containing 75 wt % water and 25 wt % DMSO. Different concentrations of formulated compounds or mixtures were sprayed onto the insect diet at 20 μl, using a custom built micro atomizer, at two replications.
as §1
After application, microtiter plates were incubated at 23±1° C., 50±5% RH for 5 days. Egg and larval mortality was then visually assessed.

Assay [4] deals with green peach aphid (Myzus persicae). Kind of assay: Test B.2: control of green peach aphid through systemic means, artificial diet under membrane in microtiter plates. To be noted: 3 days. From the text: For evaluating control of green peach aphid (Myzus persicae) through systemic means the test unit consisted of microtiter plates containing liquid artificial diet under an artificial membrane.
The compounds or mixtures were formulated using a solution containing 75 wt % water and 25 wt % DMSO. Different concentrations of formulated compounds or mixtures were pipetted into the aphid diet, using a custom built pipetter, at two replications. For experimental mixtures in these tests identical volumes of both mixing partners at the desired concentrations respectively, were mixed together.
After application, 5-8 adult aphids were placed on the artificial membrane inside the microtiter plate wells. The aphids were then allowed to suck on the treated aphid diet and incubated at 23±1° C., 50±5% RH for 3 days. Aphid mortality and fecundity was then visually assessed.

Where [5] appears, read: 200 + 0 ppm (compound II + compound I), compound II alone.
Where [6] appears, read: 0.4 + 0 ppm (compound II + compound I), compound II alone.
[7] abbreviates: 2 + 0 ppm (compound II + compound I), compound II alone.
Setting [8] is: 0 + 0.8 ppm (compound II + compound I), compound I alone.
Setting [9] is: 0 + 20 ppm (compound II + compound I), compound I alone.
Where [10] appears, read: 0.08 + 0 ppm (compound II + compound I), compound II alone.
Where [11] appears, read: 4 + 0 ppm (compound II + compound I), compound II alone.

SMILES strings stand for the structures.

As for `CC(C)(C)c1ccc(CSc2cnn(C(C)(C)C)c(=O)c2Cl)cc1` [Pyridaben, pyridaben], the “Average Control %” value in assay [1] (setting [5]) and in assay [2] (setting [5]) was 50% throughout.

For `CNC(=O)c1cc(C#N)cc(C)c1NC(=O)c1cc(Br)nn1-c1ncccc1Cl` [Compound II.A^13.1], the “Average Control %” value in assay [2] (setting [6]) amounted to 0%.

With `N#Cc1nn(-c2c(Cl)cc(C(F)(F)F)cc2Cl)c(N)c1[S+]([O-])C(F)(F)F` (centres unmarked) [Fipronil, fipronil], the “Average Control %” value in assay [1] (setting [7]) was 25%.

On to `CS(=O)(Cc1ccc(Cl)nc1)=NC#N` (centres unmarked) [Compound C.I.1], for which the “Average Control %” value was 0% in assay [1] (setting [8]); 0% in assay [2] (0 + 4 ppm (compound II + compound I), compound I alone); 0% in assay [2] (setting [9]); 0% in assay [3] (setting [9]); 50% in assay [4] (setting [9]).

In the case of `CC(c1ccc(Cl)nc1)S(C)(=O)=NC#N` (centres unmarked) [Compound C.I.2], the “Average Control %” value in assay [1] (setting [8]) came to 0%; in assay [2] (0 + 10 ppm (compound II + compound I), compound I alone), 0%; in assay [2] (setting [9]) it was 0%.

Regarding `CN1COCN(Cc2cnc(Cl)s2)/C1=N\[N+](=O)[O-]` [Thiamethoxam, thiamethoxam], the “Average Control %” value in assay [4] (setting [10]) came to 0%.

As to `O=[N+]([O-])NC1=NCCN1Cc1ccc(Cl)nc1` [Imidacloprid, imidacloprid], the entries for the “Average Control %” value in assay [2] (setting [11]) and in assay [3] (setting [7]) were 0% and 25%, respectively.

As for `CC1(C)C(C=C(Cl)Cl)C1C(=O)OC(C#N)c1cccc(Oc2ccccc2)c1` (stereo not drawn) [Alphacypermethrin, alpha-cypermethrin], the “Average Control %” value in assay [1] (setting [7]) and in assay [2] (setting [6]) was 0% each time.

Consider `CCOC(=O)OC1=C(c2cc(C)ccc2C)C(=O)N[C@]12CC[C@@H](OC)CC2` [Spirotetramat, spirotetramat], for which the “Average Control %” value in assay [1] (100 + 0 ppm (compound II + compound I), compound II alone) is recorded as 50%; in assay [4] (setting [11]) it was 0%.

With `CNC(=O)c1cc(Cl)cc(C)c1NC(=O)c1cc(Br)nn1-c1ncccc1Cl` [Rynaxypyr], in assay [4] (setting [10]), the “Average Control %” value came to 0%.

For the origin of these results see patent publication US11930814B2, “Pesticidal mixtures comprising cyanosulfoximine compounds” (BASF SE, priority 2007, dated 2024).
